Common to all, as to type: in vivo
In one assay the test system is C57Bl/6 mice. Put plainly: Pentylenetetrazole (PTZ)-induced excitotoxic seizure model. The settings on record: for mean seizure severity (score 0 to 5): n=9. How it is done:
(§1) FIG. 3. LIMK1 inhibition reduced susceptibility to induced seizures and mitigated neuronal network hypersynchronisity in mice. (A) Excitotoxic seizures were induced by acute intraperitoneal injection of 50 mg/kg body weight pentylenetetrazole (PTZ) followed by timing and scoring (0=no seizures to 7=terminal status epilepticus) of seizure development. Mice were treated with vehicle or 10 mg/kg body weight LIMK1 inhibitor LIMKi intraperitoneally 30 minutes prior to seizure induction. […] (B) Compound hippocampal electroencephalography (EEG) recordings over 4 hours in non-transgenic (wt) and APP transgenic (APP23) mice including 2 hours before (Pre) and 2 hours after (Post) LIMKi or vehicle administration. Time of intraperitoneal LIMKi and vehicle administration is indicated with an arrow. […] Frequent spikes pre and post vehicle administration in APP23 mice. In contrast, LIMKi injection mitigates spike activity in APP23 post injection. […] From left to right: non-Tg+vehicle; non-Tg+LIMKi; APP23+vehicle; APP23+LIMKi.
Seizure model. Excitotoxic seizure were induced in mice by intraperitoneal injection of 50 mg/kg body weight pentylenetetrazole followed by observation in a square area (40×40 cm). Scoring of seizures was done as previously described (Ittner et al., 2010, Cell 142, 387-397). For LIMKi-treated mice, scoring was adjusted by combining the severe seizure scores 5 to 7 into a single score of 5. For both scales, minor to moderate seizures are reflected by scores <5.
(§2) Next, the inventors tested the effects of acute Compound 1 administration on neuronal network activity in APP23 mice. […] Furthermore, CFC 1 hour after Compound 1 administration was re-established (data not shown). […] Thus, inhibition of LIMK1 with Compound 1 conferred protection from Aβ toxicity in neurons and from excitotoxicity in vivo. Furthermore, treatment of APP23 with Compound 1 corrected network aberrations including CFC.

A further assay deals with non-transgenic (wt) mice. The assay can be described thus: Telemetric hippocampal EEG recordings in non-transgenic (wt) mice. The settings on record: pre and post intraperitoneal injection. How it is done: as §1
Electroencephalography. Hippocampal EEG recordings were done with implanted telemetric electrodes (D.S.I.) as previously described (Ittner et al., 2014, Acta neuropathologica communications 2, 149). All recordings were done with mice individually housed in their home cages one week after implantation of transmitters. […]

The test system of a further assay is APP23 mice. Put plainly: Telemetric hippocampal EEG recordings (spike analysis, cross frequency coupling) in APP23 mice. Particulars: for amplitude phase in EEG recordings / modulation index of cross frequency coupling: vs wt controls; for spike frequency / hypersynchronous discharges in EEG: intraperitoneal, 2 hours pre vs 2 hours post administration, and vs vehicle. The procedure:
as §1
Mice. APP23 express human Swedish mutant (K595N/M596L) amyloid-β precursor protein (APP) in neurons (Sturchler-Pierrat et al., 1997, Proc Natl Acad Sci USA 94, 13287-13292). Limk1^−/− mice have been reported previously (Meng et al., 2002, Neuron 35, 121-133). All mice were on a pure C57Bl/6 background. Mice were housed in standard individually ventilated cages on a 12 hour light/dark cycle with access to standard chow and water ad libitum. Mice of both genders were used unless otherwise indicated. Investigators were blinded to genotypes until after completion of data analysis. All experiments were approved by the Animal Ethics Committee of Macquarie University.
Electroencephalography. Hippocampal EEG recordings were done with implanted telemetric electrodes (D.S.I.) as previously described (Ittner et al., 2014, Acta neuropathologica communications 2, 149). All recordings were done with mice individually housed in their home cages one week after implantation of transmitters. Compound administration was done intraperitoneally during transient restraining of mice. Vehicle for the LIMK1 inhibitor LIMKi contained hydroxypropyl methylcellulose 606 (HPMC 606) with polyvinylpyrrolidone k17 (PVP k17) and tween 80 in a proportion of 0.5%, 0.5%, 0.1%, respectively. Spike analysis was done with the Neuroscore software module (D.S.I.) as previously described (Ittner et al., 2016, Science 354, 904-908). Cross frequency coupling of theta and gamma waves was performed as previously described (Ittner et al., 2016, Science 354, 904-908).
as §2

The mark [1] stands for this setting: 10 mg/kg intraperitoneally 30 minutes prior to 50 mg/kg PTZ i.p., vs vehicle controls.
[2] abbreviates: 1 hour after administration, n=8.
Setting [3] is: 1 hour after administration, n=8, listed as LIMKi.

As to `Cc1c[nH]c2ncnc(N3CCN(/C(=N\C#N)Nc4cccc(Br)c4)[C@@H](C)C3)c12` [Compound 1], in the assay on C57Bl/6 mice (10 mg/kg 30 minutes prior to PTZ, C57Bl/6 mice), the “latency to develop severe seizures” value was “increased the latency to develop severe seizures”. In the assay with C57Bl/6 mice (setting [1]), the “development of severe seizure stages over time (score=5)” value is recorded as “Only vehicle-treated mice develop severe seizure stages over time”, the “latency to develop lower grade seizures (score <5)” value is reported as “Delayed latency to develop lower grade seizures” and the “mean seizure severity (score 0 to 5)” value was “significantly reduced mean seizure severity”. Moreover, the “mean seizure severity (score 0 to 5)” value in the assay with C57Bl/6 mice (10 mg/kg intraperitoneally 30 minutes prior to 50 mg/kg PTZ i.p., vs vehicle controls, listed as LIMKi) is reported as “Significantly reduced seizure severity”. The “spike activity in EEG” value in the assay with non-transgenic (wt) mice is reported as “No overt spike activity”. The “cross frequency coupling (CFC)” value with APP23 mice (1 hour after administration, data not shown) is recorded as “re-established”. In the assay on APP23 mice (setting [2]), the “amplitude phase in EEG recordings” value is “normalized” and the “modulation index of cross frequency coupling” value was “normalized”. For the same molecule, in the assay on APP23 mice (setting [3]), the “amplitude phase in EEG recordings” value is “corrected 1 hour after LIMKi delivery and no longer different from wt controls”; the “modulation index of cross frequency coupling” value was “corrected 1 hours after LIMKi administration and no longer different from wt controls”. Further, in the assay on APP23 mice (n=8), the “spike frequency / hypersynchronous discharges in EEG” value is reported as “hypersynchronicity significantly decreased”. Besides, in the assay on APP23 mice (n=8, listed as LIMKi), the “spike frequency / hypersynchronous discharges in EEG” value is reported as “significantly reduced spike frequency”.

The record behind these values is US20220288081A1, “TREATMENT OF EXCITOTOXICITY-RELATED CONDITIONS” (priority 2019, published 2022).
